Measurements reported in ChEMBL document CHEMBL5247629, “C-6 fluorinated casuarines as highly potent and selective amyloglucosidase inhibitors: Synthesis and structure-activity relationship study” (Eur J Med Chem, 2022).

Assays:
Bos taurus [1] = species on record: Bos taurus; assay: Inhibition of bovine liver beta-galactosidase at 1000 uM relative to control
Bos taurus [2] = species on record: Bos taurus; assay: Inhibition of bovine liver beta-glucosidase at 1000 uM relative to control; assay type: tissue-based
[3] = Inhibition of rat intestinal maltase; assay type: tissue-based, Intestine
Helix pomatia [4] = assay: Inhibition of snail beta-mannosidase at 1000 uM relative to control
[5] = molecular target: T1, Tissue alpha-L-fucosidase (Bos taurus) (UniProt Q2KIM0); assay: Inhibition of bovine kidney alpha-L-fucosidase at 1000 uM relative to control; assay type: tissue-based
T1 sequence (whole entry): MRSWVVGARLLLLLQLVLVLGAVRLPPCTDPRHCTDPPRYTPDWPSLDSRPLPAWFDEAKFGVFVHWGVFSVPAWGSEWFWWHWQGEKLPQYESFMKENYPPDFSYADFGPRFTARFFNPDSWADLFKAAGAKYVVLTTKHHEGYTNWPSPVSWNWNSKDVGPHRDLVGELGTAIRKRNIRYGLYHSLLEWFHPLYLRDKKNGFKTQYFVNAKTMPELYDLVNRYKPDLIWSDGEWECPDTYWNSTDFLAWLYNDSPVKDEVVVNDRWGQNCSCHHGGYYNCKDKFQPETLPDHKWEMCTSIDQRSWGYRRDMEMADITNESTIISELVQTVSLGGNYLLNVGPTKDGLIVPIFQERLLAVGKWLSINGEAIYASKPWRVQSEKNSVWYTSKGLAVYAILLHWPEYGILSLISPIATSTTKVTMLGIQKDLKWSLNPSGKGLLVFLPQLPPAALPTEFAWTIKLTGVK

Alpha-glucosidase = Alpha-glucosidase (Saccharomyces cerevisiae S288c, UniProt P53341+P38158+P07265); assay: Inhibition of yeast alpha-glucosidase; assay type: protein assay
[6] = molecular target: Alpha-galactosidase (Coffea arabica) (UniProt Q42656); assay: Inhibition of coffee bean alpha-galactosidase at 1000 uM relative to control
[7] = molecular target: T2, Alpha-mannosidase (Canavalia ensiformis) (UniProt C0HJB3); assay: Inhibition of jack bean alpha-mannosidase at 1000 uM relative to control
T2 sequence (whole entry): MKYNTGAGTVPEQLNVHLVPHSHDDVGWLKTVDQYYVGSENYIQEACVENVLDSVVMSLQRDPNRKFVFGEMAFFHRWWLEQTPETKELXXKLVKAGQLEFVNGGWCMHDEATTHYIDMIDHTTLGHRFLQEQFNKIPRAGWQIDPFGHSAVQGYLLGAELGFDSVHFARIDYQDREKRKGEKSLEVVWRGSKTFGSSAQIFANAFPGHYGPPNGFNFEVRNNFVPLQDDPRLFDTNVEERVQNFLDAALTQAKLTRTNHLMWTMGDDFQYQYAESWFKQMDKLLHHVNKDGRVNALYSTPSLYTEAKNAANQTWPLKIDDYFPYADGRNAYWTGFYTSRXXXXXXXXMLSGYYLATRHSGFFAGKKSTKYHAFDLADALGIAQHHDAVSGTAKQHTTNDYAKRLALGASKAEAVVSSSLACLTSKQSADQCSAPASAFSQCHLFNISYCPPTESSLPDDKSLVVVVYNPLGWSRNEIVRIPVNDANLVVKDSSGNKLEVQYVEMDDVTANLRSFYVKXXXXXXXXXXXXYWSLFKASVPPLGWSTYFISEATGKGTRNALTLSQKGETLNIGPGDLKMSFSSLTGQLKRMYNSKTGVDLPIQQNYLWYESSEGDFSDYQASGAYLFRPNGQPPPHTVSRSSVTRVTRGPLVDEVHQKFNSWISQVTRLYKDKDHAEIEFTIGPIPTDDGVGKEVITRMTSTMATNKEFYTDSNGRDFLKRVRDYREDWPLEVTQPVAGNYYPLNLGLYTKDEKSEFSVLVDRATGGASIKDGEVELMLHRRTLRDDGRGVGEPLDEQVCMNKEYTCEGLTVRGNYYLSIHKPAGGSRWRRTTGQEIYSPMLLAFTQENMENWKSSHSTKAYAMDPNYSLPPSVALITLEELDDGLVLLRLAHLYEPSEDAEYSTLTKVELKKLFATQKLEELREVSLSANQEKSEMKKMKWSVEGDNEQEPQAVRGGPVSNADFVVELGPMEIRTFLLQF

Bos taurus [8] = species on record: Bos taurus; assay: Inhibition of bovine liver beta-glucuronidase at 1000 uM relative to control; assay type: tissue-based
[9] = Inhibition of Aspergillus niger amyloglucosidase
[10] = Inhibition of porcine kidney alpha/alpha-trehalase; assay type: tissue-based, Sus scrofa
[11] = Inhibition of Aspergillus niger amyloglucosidase using p-nitrophenyl glycoside as substrate by spectrometric method
Prunus dulcis [12] = assay: Inhibition of almond beta-glucosidase at 1000 uM relative to control
Penicillium decumbens [13] = assay: Inhibition of Penicillium decumbens alpha-L-rhamnosidase at 1000 uM relative to control
Escherichia coli [14] = assay: Inhibition of Escherichia coli beta-glucuronidase at 1000 uM relative to control
[15] = Inhibition of rice alpha-glucosidase; set-up: species or system Oryza sativa
Oryza sativa = assay: Inhibition of rice alpha-glucosidase using p-nitrophenyl glycoside as substrate at 1000 uM by spectrometric method relative to control
[16] = molecular target: T2, Alpha-mannosidase (Canavalia ensiformis); assay: Inhibition of jack bean alpha-mannosidase using p-nitrophenyl glycoside as substrate at 1000 uM by spectrometric method relative to control
Escherichia coli [17] = assay: Inhibition of Escherichia coli beta-glucuronidase using p-nitrophenyl glycoside as substrate at 1000 uM by spectrometric method relative to control
[18] = molecular target: Alpha-glucosidase (Saccharomyces cerevisiae S288c) (UniProt P53341+P38158+P07265); assay: Inhibition of yeast alpha-glucosidase using p-nitrophenyl glycoside as substrate at 1000 uM by spectrometric method relative to control; assay type: protein assay
Rattus norvegicus = species on record: Rattus norvegicus; assay: Inhibition of rat intestinal maltase using maltose as substrate at 1000 uM at pH 6.8 by colorimetric method relative to control; assay type: tissue-based; settings: Intestine
Penicillium decumbens [19] = assay: Inhibition of Penicillium decumbens alpha-L-rhamnosidase using p-nitrophenyl glycoside as substrate at 1000 uM by spectrometric method relative to control
[20] = molecular target: Alpha-galactosidase (Coffea arabica) (UniProt Q42656); assay: Inhibition of coffee bean alpha-galactosidase using p-nitrophenyl glycoside as substrate at 1000 uM by spectrometric method relative to control
Prunus dulcis [21] = assay: Inhibition of almond beta-glucosidase using p-nitrophenyl glycoside as substrate at 1000 uM by spectrometric method relative to control
Helix pomatia [22] = assay: Inhibition of snail beta-mannosidase using p-nitrophenyl glycoside as substrate at 1000 uM by spectrometric method relative to control
Sus scrofa = species on record: Sus scrofa; assay: Inhibition of porcine kidney alpha/alpha-trehalase using p-nitrophenyl glycoside as substrate at 1000 uM by spectrometric method relative to control; assay type: tissue-based
Bos taurus [23] = species on record: Bos taurus; assay: Inhibition of bovine liver beta-glucosidase using p-nitrophenyl glycoside as substrate at 1000 uM by spectrometric method relative to control; assay type: tissue-based
[24] = molecular target: T1, Tissue alpha-L-fucosidase (Bos taurus); assay: Inhibition of bovine kidney alpha-L-fucosidase using p-nitrophenyl glycoside as substrate at 1000 uM by spectrometric method relative to control; assay type: tissue-based
Bos taurus [25] = species on record: Bos taurus; assay: Inhibition of bovine liver beta-glucuronidase using p-nitrophenyl glycoside as substrate at 1000 uM by spectrometric method relative to control; assay type: tissue-based
Bos taurus [26] = species on record: Bos taurus; assay: Inhibition of bovine liver beta-galactosidase using p-nitrophenyl glycoside as substrate at 1000 uM by spectrometric method relative to control; assay type: tissue-based
[27] = Inhibition of rat intestinal maltase using maltose as substrate at pH 6.8 by colorimetric method; assay type: tissue-based, Intestine
[28] = Inhibition of rice alpha-glucosidase using p-nitrophenyl glycoside as substrate by spectrometric method; set-up: species or system Oryza sativa

Sequence of Alpha-galactosidase (Coffea arabica) (Q42656 16-378 limits assumed): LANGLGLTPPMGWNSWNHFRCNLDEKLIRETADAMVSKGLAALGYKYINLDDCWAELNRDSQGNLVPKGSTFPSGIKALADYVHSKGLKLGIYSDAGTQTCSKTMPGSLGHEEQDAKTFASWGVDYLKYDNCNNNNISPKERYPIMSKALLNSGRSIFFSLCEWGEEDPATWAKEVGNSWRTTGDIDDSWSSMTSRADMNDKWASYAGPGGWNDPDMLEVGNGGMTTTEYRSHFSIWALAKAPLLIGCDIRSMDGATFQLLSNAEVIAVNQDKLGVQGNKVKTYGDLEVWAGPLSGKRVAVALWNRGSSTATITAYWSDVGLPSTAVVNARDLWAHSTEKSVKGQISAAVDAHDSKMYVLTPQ

In the case of OC[C@@H]1[C@@H](O)[C@H](O)[C@H]2[C@H](O)[C@@H](O)CN21 [CASUARINE], the inhibition (Bos taurus [1]) is reported as 10.2%, the inhibition (Bos taurus [2]) is reported as 7.5% and the IC50 [3] is reported as 3.1 µM. For the same compound, the inhibition (Helix pomatia [4]) was 0%, the inhibition [5] was 0% and the IC50 (Alpha-glucosidase) was 71 µM. The inhibition [6] was 3.7%, the inhibition [7] was 0% and the inhibition (Bos taurus [8]) was 17.3%. For the same compound, the IC50 [9] was 6.3 µM, the IC50 [10] was 157 µM and the pIC50 [11] was 5.201. It also gave an inhibition (Prunus dulcis [12]) of 12%, an inhibition (Penicillium decumbens [13]) of 4.6% and an inhibition (Escherichia coli [14]) of 1.8%. For the same compound, the IC50 [15] was 14 µM.

For OC[C@@H]1[C@@H](O)[C@H](O)[C@H]2CC(F)(F)CN12, the inhibition (Oryza sativa) was 15.4%, the inhibition [16] was 0% and the inhibition (Escherichia coli [17]) was 0%. The inhibition [18] was 3.6%, the inhibition (Rattus norvegicus) was 7.9% and the inhibition (Penicillium decumbens [19]) was 3%. For the same compound, the inhibition [20] was 1.6%, the IC50 [11] was 27 µM and the pIC50 [11] was 4.569. For the same compound, the inhibition (Prunus dulcis [21]) was 11.4%, the inhibition (Helix pomatia [22]) was 0% and the inhibition (Sus scrofa) was 3.2%. For the same compound, the inhibition (Bos taurus [23]) was 12.5%, the inhibition [24] was 0% and the inhibition (Bos taurus [25]) was 0%. For the same compound, the inhibition (Bos taurus [26]) was 22.4%.

OC[C@@H]1[C@@H](O)[C@H](O)[C@H]2[C@@H](F)CCN21 showed an IC50 [9] of 81 µM and a pIC50 [11] of 4.092.

OC[C@@H]1[C@@H](O)[C@H](O)[C@H]2[C@@H](O)[C@@H](F)CN21 showed an inhibition [16] of 3.3%, an inhibition (Escherichia coli [17]) of 7% and an IC50 [27] of 927 µM. The IC50 [28] was 350 µM, the inhibition [18] was 18% and the inhibition (Penicillium decumbens [19]) was 1.7%. The inhibition [20] was 0%, the IC50 [11] was 248 µM and the pIC50 [11] was 3.606. The inhibition (Prunus dulcis [21]) was 13.6%, the inhibition (Helix pomatia [22]) was 0% and the inhibition (Sus scrofa) was 30.4%. The inhibition (Bos taurus [23]) was 35.9%, the inhibition [24] was 14% and the inhibition (Bos taurus [25]) was 13.3%. The inhibition (Bos taurus [26]) was 38%.

For OC[C@@H]1[C@@H](O)[C@H](O)[C@@H]2N1C[C@H](O)C2(F)F, the IC50 [9] was 39 µM and the pIC50 [11] was 4.409.

Compound OC[C@@H]1[C@@H](O)[C@H](O)[C@H]2[C@H](O)[C@H](O)CN21 has an inhibition (Bos taurus [1]) of 5.9%, an inhibition (Bos taurus [2]) of 1.9% and an IC50 [3] of 13 µM. The inhibition (Helix pomatia [4]) was 3%, the inhibition [5] was 0% and the IC50 (Alpha-glucosidase) was 46 µM. The inhibition [6] was 6%, the inhibition [7] was 1.1% and the inhibition (Bos taurus [8]) was 18.4%. It also gave an IC50 [9] of 5.3 µM, an IC50 [10] of 9.7 µM and a pIC50 [11] of 5.276. It also gave an inhibition (Prunus dulcis [12]) of 31.9%, an inhibition (Penicillium decumbens [13]) of 13.2% and an inhibition (Escherichia coli [14]) of 3.1%. The IC50 [15] was 68 µM.

Work on OC[C@@H]1[C@@H](O)[C@H](O)[C@H]2[C@H](F)[C@@H](O)CN21 yielded an IC50 [9] of 5.3 µM and a pIC50 [11] of 5.276.

Work on OC[C@@H]1[C@@H](O)[C@H](O)[C@H]2[C@@H](O)[C@H](F)CN21 yielded an inhibition (Oryza sativa) of 28.4%, an inhibition [16] of 0% and an inhibition (Escherichia coli [17]) of 2.9%. For the same compound, the inhibition [18] was 0%, the inhibition (Rattus norvegicus) was 41.7% and the inhibition (Penicillium decumbens [19]) was 0%. The inhibition [20] was 0%, the IC50 [11] was 11 µM and the pIC50 [11] was 4.959. The inhibition (Prunus dulcis [21]) was 8.5%, the inhibition (Helix pomatia [22]) was 0.8% and the inhibition (Sus scrofa) was 30.4%. The inhibition (Bos taurus [23]) was 32.3%, the inhibition [24] was 0% and the inhibition (Bos taurus [25]) was 23.1%. It also gave an inhibition (Bos taurus [26]) of 17.6%.

OC[C@@H]1[C@@H](O)[C@H](O)[C@@H]2N1C[C@@H](O)C2(F)F showed an IC50 [9] of 60 µM and a pIC50 [11] of 4.222.
